This assay deals with adrenocortical cells prepared from an adrenoma of a patient suffering from Conn's syndrome. Kind of assay: cells. The following applies: Homo sapiens, read-out: concentration effecting maximum inhibition of aldosterone secretion stimulated by angiotensin II.

Molecules are shown by their SMILES.

As to `N#Cc1ccc(C2CCCc3cncn32)cc1` (racemic) [5-(p-cyanophenyl)-5,6,7,8-tetrahydroimidazo[1,5-a]pyridine], the IC (maximum) turned out to be 0.1 µM.
